{"source": "paper PMC8528301", "about": "(PLoS ONE, 2021)", "assay": "Dasatinib single oral gavage plasma pharmacokinetics (NLME modeling)", "format": "in vivo, mouse", "set-up": "DV (dasatinib plasma concentration): unit: ng/mL", "method": "Dasatinib was dissolved in 80 mMol/L sodium citrate buffer pH 3.1 for a total dasatinib concentration of 1 mg/mL and a 10 mL/kg gavage volume. Mice were grouped by VD3 status and sex and studied at 8 and 10 weeks of age. […] Saphenous and submandibular bleeds of mice using a single-use Sarstedt Minivette POCT 50 μL K3 EDTA capillary device are humane methods for obtaining small volumes of blood over multiple time points, preferrable to retroorbital bleeds, and were approved for this study that required blood sampling at multiple time points (three) after dasatinib administration. Each mouse was sampled three times on two separate dasatinib dosing occasions. Blood was collected into the Minivette capillary device, dispensed into a microtube and vortexed to mix the anticoagulant. The tubes were then immediately centrifuged to plasma and stored on dry ice for the remainder of the study. At the end of the in vivo procedures, plasma samples were transferred from dry ice and placed at -80°C until analysis.\nTotal plasma dasatinib concentrations were assessed using a sensitive and specific liquid chromatography, tandem mass spectrometry (LC-MS/MS) assay. Dasatinib stock solutions were prepared in acetonitrile and used to spike matrix calibrators and quality controls. Protein precipitation was performed using a 1:4 ratio of plasma to 15 ng/mL erlotinib HCl (St. Jude Compound Management, S00004053, Inventory ID: SJCH0042996, Purity > 95%) in methanol as an internal standard. A 3μL aliquot of the extracted supernatant was injected onto a Shimadzu LC-20ADXR high performance liquid chromatography system via a LEAP CTC PAL autosampler. The LC separation was performed using a Phenomenex Kinetex 2.6 um EVO C18 (100A, 50 x 2.1 mm) maintained at 50°C with gradient elution at a flow rate of 0.5 mL/min. The binary mobile phase gradient began with a linear increase to 100% B in 4.0 minutes. The column was then rinsed for 2.0 minutes at 100% B and then equilibrated at the initial conditions for two minutes for a total run time of eight minutes.\nAnalyte and IS were detected with tandem mass spectrometry using a SCIEX API 5500 Q-TRAP in the positive ESI mode with monitoring of the following mass transitions: Dasatinib 488.20 -> 401.00, erlotinib HCl 394.20 -> 250.10.\nThe experimental bioanalytical runs were all found to be acceptable for the purpose of a singlicate non-GLP, preclinical PK assessment. A linear model (1/X^2 weighting) fit the calibrators across the 1.00 to 500 ng/mL range, with a correlation coefficient (R) of […]. The lower limit of quantification (LLOQ), defined as a peak area signal-to-noise ratio of 5 or greater verses a matric blank with IS, was 1.00 ng/mL.\n§ To evaluate the plasma pharmacokinetics (PK) of dasatinib af t er two separate single oral gavage doses of solution, separated by a washout period, in normal C57BL/6 mice […]\nvs 10wk) on the plasma PK of oral dasatinib us ing a nonlinear mixed effects (NLME) PK modeling […]\n2. 1 In Vivo Pharmacokinetic (PK) Study\nThe total plasma PK of dasatinib in C57BL/6 mice (The Jackson Laboratory) was assessed after single oral gavages of 10 mg/kg of dasatinib free base equivalents. Dasatinib (St. Jude Compound […]\nsodium citrate buffer pH 3.1 for a final dasatinib concentration of 1 mg/mL for a 10 mL/kg gavage volume.\nMice were grouped by Vitamin D dietary sufficiency status and sex, and studied at 8 and 10 weeks of age. Survival saphenous and facial vein bleeding of mice was conducted using IACUC-approved […]\nwas sampled 3 times on the 2 separate occasions of dasatinib dosing. […] The tubes were then immediately centrifuged to plasma, and stored on dry ice for […]", "note": "Several values for one entry are separate records, joined by “and”; a condition that tells them apart may be missing. Equal values may be shown once."}
{"smiles": "Cc1nc(Nc2ncc(C(=O)Nc3c(C)cccc3Cl)s2)cc(N2CCN(CCO)CC2)n1", "note": "[dasatinib]", "values": [{"measurement": "calculated Cgut", "setting": "10 mg/kg into a gastric volume of 300–400 μL", "result": 1.5, "unit": "mM"}, {"measurement": "influence of VD3 status, sex, or age on oral dasatinib PK", "setting": "10 mg/kg oral gavage, 8 wk vs 10 wk", "result": "no influence"}, {"measurement": "Q pop", "setting": "Base Model", "result": 19.5, "unit": "mL/min/kg"}, {"measurement": "V1 pop (apparent volume of central compartment)", "setting": "Base Model", "result": 12.7, "unit": "L/kg"}, {"measurement": "V2 pop", "setting": "Base Model", "result": 11.1, "unit": "L/kg"}, {"measurement": "omega_Cl (inter-individual variability)", "setting": "Base Model", "result": 0.294, "unit": "%CV"}, {"measurement": "omega_V1 (inter-individual variability)", "setting": "Base Model", "result": 0.465, "unit": "%CV"}, {"measurement": "Tk0 pop", "setting": "Base Model, 10 mg/kg oral gavage, zero order absorption duration", "result": 1.29, "unit": "h"}, {"measurement": "Q pop", "setting": "Final Model", "result": 21, "unit": "mL/min/kg"}, {"measurement": "V1 pop", "setting": "Final Model", "result": 12.2, "unit": "L/kg"}, {"measurement": "V2 pop", "setting": "Final Model", "result": 11.2, "unit": "L/kg"}, {"measurement": "omega_Cl", "setting": "Final Model", "result": 0.287, "unit": "%CV"}, {"measurement": "omega_V1", "setting": "Final Model", "result": 0.477, "unit": "%CV"}, {"measurement": "Tk0 pop", "setting": "Final Model (VD3 status and sex covariates on Cl)", "result": 1.33, "unit": "h"}, {"measurement": "DV (dasatinib plasma concentration)", "setting": "GROUP:VD3 Def, SEX:F, OCC 1, time 0.5", "result": "206.1 and 158.35"}, {"measurement": "DV (dasatinib plasma concentration)", "setting": "GROUP:VD3 Def, SEX:F, OCC 1, time 1", "result": "457.04 and 404.1"}, {"measurement": "DV (dasatinib plasma concentration)", "setting": "GROUP:VD3 Def, SEX:F, OCC 1, time 2", "result": "> 500 and 323.65"}, {"measurement": "DV (dasatinib plasma concentration)", "setting": "GROUP:VD3 Def, SEX:F, OCC 1, time 8", "result": "33.172 and 43.592"}, {"measurement": "DV (dasatinib plasma concentration)", "setting": "GROUP:VD3 Def, SEX:F, OCC 1, time 16", "result": "2.7889 and 2.9067"}, {"measurement": "DV (dasatinib plasma concentration)", "setting": "GROUP:VD3 Def, SEX:F, OCC 2, time 0.125", "result": "29.279 and 44.718"}, {"measurement": "DV (dasatinib plasma concentration)", "setting": "GROUP:VD3 Def, SEX:F, OCC 2, time 0.25", "result": "240.93 and 155.4"}, {"measurement": "DV (dasatinib plasma concentration)", "setting": "GROUP:VD3 Def, SEX:F, OCC 2, time 0.5", "result": "128.51 and 161.37"}, {"measurement": "DV (dasatinib plasma concentration)", "setting": "GROUP:VD3 Def, SEX:F, OCC 2, time 16", "result": "6.2042 and 7.8308"}, {"measurement": "DV (dasatinib plasma concentration)", "setting": "GROUP:VD3 Def, SEX:M, OCC 1, time 0.25", "result": "143.39 and 275.48"}, {"measurement": "DV (dasatinib plasma concentration)", "setting": "GROUP:VD3 Def, SEX:M, OCC 1, time 0.5", "result": "240.61 and 267.78"}, {"measurement": "DV (dasatinib plasma concentration)", "setting": "GROUP:VD3 Def, SEX:M, OCC 1, time 2", "result": 760.24}, {"measurement": "DV (dasatinib plasma concentration)", "setting": "GROUP:VD3 Def, SEX:M, OCC 1, time 4", "result": "99.618 and 81.306"}, {"measurement": "DV (dasatinib plasma concentration)", "setting": "GROUP:VD3 Def, SEX:M, OCC 1, time 8", "result": "11.773 and 10.821"}, {"measurement": "DV (dasatinib plasma concentration)", "setting": "GROUP:VD3 Def, SEX:M, OCC 1, time 24", "result": "7.0494 and 5.7321"}, {"measurement": "DV (dasatinib plasma concentration)", "setting": "GROUP:VD3 Def, SEX:M, OCC 2, time 0.5", "result": "117.58 and 209.13"}, {"measurement": "DV (dasatinib plasma concentration)", "setting": "GROUP:VD3 Def, SEX:M, OCC 2, time 2", "result": "376.78 and > 500"}, {"measurement": "DV (dasatinib plasma concentration)", "setting": "GROUP:VD3 Def, SEX:M, OCC 2, time 4", "result": "62.561 and 70.903"}, {"measurement": "DV (dasatinib plasma concentration)", "setting": "GROUP:VD3 Def, SEX:M, OCC 2, time 8", "result": "13.735 and 13.061"}, {"measurement": "DV (dasatinib plasma concentration)", "setting": "GROUP:VD3 Def, SEX:M, OCC 2, time 16", "result": "8.5466 and 7.4123"}, {"measurement": "DV (dasatinib plasma concentration)", "setting": "GROUP:VD3 Suf, SEX:F, OCC 1, time 0.25", "result": "244.67 and 197.71"}, {"measurement": "DV (dasatinib plasma concentration)", "setting": "GROUP:VD3 Suf, SEX:F, OCC 1, time 0.5", "result": "144.41 and 217.29"}, {"measurement": "DV (dasatinib plasma concentration)", "setting": "GROUP:VD3 Suf, SEX:F, OCC 1, time 2", "result": "466.97 and > 500"}, {"measurement": "DV (dasatinib plasma concentration)", "setting": "GROUP:VD3 Suf, SEX:F, OCC 1, time 4", "result": "105.56 and 62.725"}, {"measurement": "DV (dasatinib plasma concentration)", "setting": "GROUP:VD3 Suf, SEX:F, OCC 1, time 8", "result": "11.198 and 14.683"}, {"measurement": "DV (dasatinib plasma concentration)", "setting": "GROUP:VD3 Suf, SEX:F, OCC 1, time 16", "result": "1.9898 and 3.161"}, {"measurement": "DV (dasatinib plasma concentration)", "setting": "GROUP:VD3 Suf, SEX:F, OCC 2, time 0.5", "result": "124.69 and 151.83"}, {"measurement": "DV (dasatinib plasma concentration)", "setting": "GROUP:VD3 Suf, SEX:F, OCC 2, time 2", "result": "295.49 and 395.48"}, {"measurement": "DV (dasatinib plasma concentration)", "setting": "GROUP:VD3 Suf, SEX:F, OCC 2, time 4", "result": "72.682 and 42.565"}, {"measurement": "DV (dasatinib plasma concentration)", "setting": "GROUP:VD3 Suf, SEX:F, OCC 2, time 16", "result": "9.1881 and 6.2417"}, {"measurement": "DV (dasatinib plasma concentration)", "setting": "GROUP:VD3 Suf, SEX:M, OCC 1, time 0.125", "result": "35.897 and 45.322"}, {"measurement": "DV (dasatinib plasma concentration)", "setting": "GROUP:VD3 Suf, SEX:M, OCC 1, time 0.25", "result": "87.715 and 117.65"}, {"measurement": "DV (dasatinib plasma concentration)", "setting": "GROUP:VD3 Suf, SEX:M, OCC 1, time 2", "result": "> 500 and 483.94"}, {"measurement": "DV (dasatinib plasma concentration)", "setting": "GROUP:VD3 Suf, SEX:M, OCC 1, time 4", "result": "103.68 and 89.88"}]}
